Laboratory results as given in ChEMBL document CHEMBL5352417, “Design, synthesis, and biological evaluation of aromatic tertiary amine derivatives as selective butyrylcholinesterase inhibitors for the treatment of Alzheimer's disease” (Eur J Med Chem, 2022).
The source made the active and inactive calls. The calls are words filed in the database; no cut-off is given here.

What was measured:
[1] = target: Acetylcholinesterase (Electrophorus electricus) (UniProt O42275); assay: Inhibition of electric eel AchE using acetylthiocholine iodide as substrate at <10 uM measured for 3 mins by Ellman's method relative to control
[2] = target: Cholinesterase (Equus caballus, UniProt P81908); assay: Inhibition of horse serum BuChE using butyrylthiocholine iodide as substrate measured for 3 mins by Ellman's method; type: cell-free
[3] = target: Cholinesterase (Equus caballus) (UniProt P81908); assay: Inhibition of horse serum BuChE using butyrylthiocholine iodide as substrate at <10 uM measured for 3 mins by Ellman's method relative to control; type: cell-free
[4] = Neurotoxicity against mouse HT-22 cells assessed as survival rate incubated for 24 hrs by MTT assay relative to control; type: toxicity, cell-based; set-up: concentration or dose not given beside the values; settings: read-out: Survival
[5] = Neurotoxicity against mouse BV-2 cells incubated for 24 hrs by MTT assay; type: toxicity, cell-based; settings: read-out: LD50
[6] = Effective permeability of compound at 25 ug/ml incubated for 18 hrs by PAMPA-BBB assay; type: ADME; settings: dose 25 µg/ml, read-out: Peff
[7] = target: Cholinesterase (Homo sapiens, UniProt P06276); assay: Inhibition of human BChE using butyrylthiocholine iodide as substrate measured for 3 mins by Ellman's method
[8] = Neurotoxicity against human SH-SY5Y cells assessed as survival rate incubated for 24 hrs by MTT assay relative to control; type: toxicity, cell-based; set-up: concentration or dose not given beside the values; settings: read-out: Survival
[9] = Neurotoxicity against rat PC12 cells incubated for 24 hrs by MTT assay; type: toxicity, cell-based, PC-12; settings: read-out: LD50
[10] = Neurotoxicity against rat PC12 cells assessed as survival rate incubated for 24 hrs by MTT assay relative to control; type: toxicity, cell-based, PC-12; set-up: concentration or dose not given beside the values; settings: read-out: Survival
[11] = Neurotoxicity against human SH-SY5Y cells incubated for 24 hrs by MTT assay; type: toxicity, cell-based; settings: read-out: LD50
[12] = Neurotoxicity against mouse HT-22 cells incubated for 24 hrs by MTT assay; type: toxicity, cell-based; settings: read-out: LD50
[13] = test system: SH-SY5Y; assay: Neuroprotective activity against amyloid beta (1 to 42)-induced injury in human SH-SY5Y cells assessed as cell viability at 0.5 to 50 uM by MTT assay; type: functional, cell-based; settings: dose 0.5-50 µM
[14] = test system: Mus musculus; assay: Antialzheimer activity against amyloid beta (1 to 42)-induced mouse model of cognitive dysfunction assessed as latency time at 15 mg/kg, po measured for 14 days by Morris Water maze method; type: functional, ICR; settings: time 14 day
[15] = test system: Mus musculus; assay: Antialzheimer activity against amyloid beta (1 to 42)-induced mouse model of cognitive dysfunction assessed as reaching target platform at 15 mg/kg, po measured for 14 days by Morris Water maze method; type: functional, organism-based; settings: ICR, time 14.0 day
[16] = test system: Mus musculus; assay: Antialzheimer activity against amyloid beta (1 to 42)-induced mouse model of cognitive dysfunction assessed as reduction in latency time at 15 mg/kg, po measured for 14 days by Morris Water maze method; type: functional, organism-based; settings: ICR, time 14.0 day
[17] = target: Cholinesterase (Mus musculus, UniProt Q03311)
Sequence of Cholinesterase (Mus musculus, UniProt Q03311) (Q03311 whole entry): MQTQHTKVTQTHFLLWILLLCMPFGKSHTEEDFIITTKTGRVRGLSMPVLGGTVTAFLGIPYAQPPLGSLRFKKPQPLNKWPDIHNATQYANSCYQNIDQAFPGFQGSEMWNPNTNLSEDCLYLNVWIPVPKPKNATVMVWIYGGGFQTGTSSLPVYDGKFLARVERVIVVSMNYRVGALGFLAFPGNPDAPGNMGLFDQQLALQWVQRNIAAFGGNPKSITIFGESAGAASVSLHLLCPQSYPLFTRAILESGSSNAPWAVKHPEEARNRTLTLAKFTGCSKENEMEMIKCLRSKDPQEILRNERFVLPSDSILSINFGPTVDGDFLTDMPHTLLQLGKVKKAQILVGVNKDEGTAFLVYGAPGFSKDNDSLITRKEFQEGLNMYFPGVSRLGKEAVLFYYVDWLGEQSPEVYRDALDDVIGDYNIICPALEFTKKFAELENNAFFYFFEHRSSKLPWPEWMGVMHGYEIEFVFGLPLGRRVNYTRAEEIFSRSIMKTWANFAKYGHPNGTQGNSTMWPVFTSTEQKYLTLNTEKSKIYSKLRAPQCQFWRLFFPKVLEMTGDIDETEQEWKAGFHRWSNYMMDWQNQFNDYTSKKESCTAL
Description: Inhibition of mouse BChE by Ellman's method

Sequence of Cholinesterase (Equus caballus, UniProt P81908) (P81908 whole entry): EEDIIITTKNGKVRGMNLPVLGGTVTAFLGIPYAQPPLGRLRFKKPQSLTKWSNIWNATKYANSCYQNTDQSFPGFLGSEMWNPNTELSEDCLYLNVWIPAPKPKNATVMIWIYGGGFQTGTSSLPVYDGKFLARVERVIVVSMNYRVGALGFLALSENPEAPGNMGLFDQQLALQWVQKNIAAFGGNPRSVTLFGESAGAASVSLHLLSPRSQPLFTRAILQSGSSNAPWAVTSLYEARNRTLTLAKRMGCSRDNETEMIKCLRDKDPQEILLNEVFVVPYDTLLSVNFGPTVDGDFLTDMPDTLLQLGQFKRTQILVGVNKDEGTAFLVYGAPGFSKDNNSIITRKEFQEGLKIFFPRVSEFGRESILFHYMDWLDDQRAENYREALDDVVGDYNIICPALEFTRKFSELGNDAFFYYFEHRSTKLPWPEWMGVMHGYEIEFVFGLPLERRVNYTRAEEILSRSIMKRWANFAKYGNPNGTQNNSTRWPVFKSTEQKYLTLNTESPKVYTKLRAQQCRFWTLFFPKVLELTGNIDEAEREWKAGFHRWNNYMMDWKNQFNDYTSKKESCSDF
Sequence of Cholinesterase (Equus caballus) (P81908 whole entry): as above
Sequence of Acetylcholinesterase (Electrophorus electricus) (O42275 24-633 limits assumed): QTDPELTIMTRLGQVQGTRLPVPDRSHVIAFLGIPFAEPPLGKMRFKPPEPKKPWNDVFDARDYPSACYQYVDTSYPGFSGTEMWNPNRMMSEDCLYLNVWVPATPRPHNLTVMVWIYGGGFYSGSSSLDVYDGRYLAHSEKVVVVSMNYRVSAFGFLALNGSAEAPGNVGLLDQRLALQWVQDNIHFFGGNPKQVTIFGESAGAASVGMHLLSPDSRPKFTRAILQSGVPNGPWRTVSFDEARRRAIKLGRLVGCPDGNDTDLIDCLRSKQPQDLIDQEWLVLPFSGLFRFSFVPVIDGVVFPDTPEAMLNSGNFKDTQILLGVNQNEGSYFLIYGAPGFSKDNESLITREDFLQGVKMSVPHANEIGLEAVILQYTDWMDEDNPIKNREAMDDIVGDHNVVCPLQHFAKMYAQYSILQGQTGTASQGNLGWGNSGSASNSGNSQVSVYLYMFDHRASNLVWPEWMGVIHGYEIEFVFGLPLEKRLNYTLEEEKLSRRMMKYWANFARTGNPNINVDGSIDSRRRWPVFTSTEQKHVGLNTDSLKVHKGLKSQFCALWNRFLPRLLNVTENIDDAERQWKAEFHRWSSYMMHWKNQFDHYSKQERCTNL
Sequence of Cholinesterase (Homo sapiens, UniProt P06276) (P06276 whole entry): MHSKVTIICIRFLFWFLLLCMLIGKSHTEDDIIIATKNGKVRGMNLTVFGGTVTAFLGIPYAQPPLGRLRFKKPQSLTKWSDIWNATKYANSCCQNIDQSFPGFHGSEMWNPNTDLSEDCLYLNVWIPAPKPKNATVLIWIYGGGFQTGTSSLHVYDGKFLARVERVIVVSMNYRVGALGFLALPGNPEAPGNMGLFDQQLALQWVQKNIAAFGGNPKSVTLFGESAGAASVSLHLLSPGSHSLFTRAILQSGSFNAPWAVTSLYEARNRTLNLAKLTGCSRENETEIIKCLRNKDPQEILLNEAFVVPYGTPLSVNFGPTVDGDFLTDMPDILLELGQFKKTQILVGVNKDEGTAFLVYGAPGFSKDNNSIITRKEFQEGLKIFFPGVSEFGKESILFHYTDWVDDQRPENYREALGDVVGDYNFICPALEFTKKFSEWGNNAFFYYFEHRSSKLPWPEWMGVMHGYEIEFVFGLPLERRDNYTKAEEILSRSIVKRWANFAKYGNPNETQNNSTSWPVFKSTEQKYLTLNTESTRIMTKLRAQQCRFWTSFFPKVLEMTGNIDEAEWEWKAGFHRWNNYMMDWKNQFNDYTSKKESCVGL

Compound | inhibition [1] [%] | IC50 [2] [µM] | inhibition [3] [%] | further results
Cc1cccc(NC(=O)CN(Cc2ccc3ccccc3c2)Cc2ccco2)c1C | 15.3 | 11 | 48.1 | 
COc1ccc(NC(=O)CN(Cc2ccccc2)Cc2ccco2)cc1 | 18.2 | 121 | 21.6 | 
N#Cc1ccc(NC(=O)CN(Cc2ccccc2)Cc2ccco2)cc1 | 9.68 | 710 | 28.6 | 
O=C(CN(Cc1ccccc1)Cc1ccco1)Nc1ccccc1F | 14.1 | 8.86 | 50.9 | 
O=C(CN(Cc1ccccc1)Cc1ccco1)Nc1ccccc1 | 12.6 | 15.4 | 39.6 | 
Cc1cccc(NC(=O)CN(Cc2ccccc2)Cc2ccco2)c1 | 13.3 | 7.33 | 57.8 | 
CCCN(CC(=O)Nc1ccccc1C)Cc1ccc2ccccc2c1 | 22.9 | 0.19 | 91.3 | viability at 24 h [4]: 51.6%; CC50 at 24 h [5]: 17.6 µM; Papp at 18 h, 25 ug/ml [6]: 11.9 ×10⁻⁶ cm/s; IC50 [7]: 0.027 µM; viability at 24 h [8]: 52.8%; CC50 at 24 h [9]: 45.9 µM
O=C(CN(Cc1ccccc1)Cc1ccco1)Nc1cnc2ccccc2c1 | 13.2 | 27.9 | 29.6 | 
c1ccc(CCCN(Cc2ccc3ccccc3c2)Cc2ccco2)cc1 | 13.4 | 15.7 | 42.5 | 
O=C(CN(Cc1ccccc1)Cc1ccco1)Nc1cccc(Br)c1 | 13.4 | 6.23 | 54.7 | 
Cc1cccc(NC(=O)CN(Cc2ccc3ccccc3c2)Cc2ccco2)c1 | 15.1 | 1.74 | 70.5 | viability at 24 h [4]: 91.4%; CC50 at 24 h [5]: 24.9 µM; Papp at 18 h, 25 ug/ml [6]: 9.07 ×10⁻⁶ cm/s; viability at 24 h [10]: 105%; viability at 24 h [8]: 91.7%
CC(C)CN(CCCc1ccccc1)Cc1ccc2ccccc2c1 | 19.4 | 4.04 | 54.7 | viability at 24 h [4]: 83.5%; CC50 at 24 h [5]: 48.7 µM; Papp at 18 h, 25 ug/ml [6]: 9.87 ×10⁻⁶ cm/s; viability at 24 h [10]: 86.3%; IC50 [7]: 0.024 µM; viability at 24 h [8]: 155%
O=C(CN(Cc1ccccc1)Cc1ccco1)Nc1ccc(F)cc1 | 14.5 | 28.3 | 47.1 | 
Cc1ccccc1NC(=O)CN(Cc1ccccc1)Cc1ccco1 | 14.2 | 5.46 | 54.7 | 
COc1cc(NC(=O)CN(Cc2ccccc2)Cc2ccco2)cc(OC)c1OC | 16.1 | 52.3 | 18.9 | 
O=C(CN(Cc1ccccc1)Cc1ccco1)Nc1cccc(Cl)c1 | 19.6 | 47.4 | 42.8 | 
O=C(CN(Cc1ccco1)Cc1ccco1)Nc1ccccc1 | 12.6 | 7.81 | 47.3 | 
CN(C)CCCN1c2ccccc2Sc2ccc(Cl)cc21 [CHLORPROMAZINE] |  |  |  | Papp at 18 h, 25 ug/ml [6]: 6.69 ×10⁻⁶ cm/s
Cc1cccc(NC(=O)CN(Cc2ccco2)Cc2c[nH]c3ccccc23)c1 | 14.3 | 6.61 | 55.2 | 
CCN(CC)CCN(CC(=O)Nc1ccccc1C)Cc1ccc2ccccc2c1 | 20.1 | 1.45 | 85.6 | CC50 at 24 h [11]: 50.8 µM; CC50 at 24 h [5]: 24.2 µM; Papp at 18 h, 25 ug/ml [6]: 10.6 ×10⁻⁶ cm/s; CC50 at 24 h [12]: 85.1 µM; IC50 [7]: 0.29 µM; Activity [13]: inactive; CC50 at 24 h [9]: 40.6 µM
O=C(CN(Cc1ccco1)Cc1ccccc1[N+](=O)[O-])Nc1ccccc1 | 15.8 | 1.3 | 61.9 | Papp at 18 h, 25 ug/ml [6]: 4.93 ×10⁻⁶ cm/s
O=C(CN(Cc1ccco1)Cc1c[nH]c2ccccc12)Nc1ccccc1 | 26.2 | 2.14 | 65.3 | CC50 at 24 h [11]: 42.2 µM; CC50 at 24 h [5]: 27.5 µM; Papp at 18 h, 25 ug/ml [6]: 7.3 ×10⁻⁶ cm/s; CC50 at 24 h [12]: 59.6 µM; CC50 at 24 h [9]: 40.4 µM
O=C(CN(Cc1ccc2ccccc2c1)Cc1ccco1)Nc1ccccc1 | 16.9 | 2.26 | 62.9 | viability at 24 h [4]: 86.5%; CC50 at 24 h [5]: 14 µM; Papp at 18 h, 25 ug/ml [6]: 7.81 ×10⁻⁶ cm/s; viability at 24 h [10]: 100%; viability at 24 h [8]: 90.7%
CCCCN(CCCc1ccccc1)Cc1ccc2ccccc2c1 | 23 | 0.23 | 89 | viability at 24 h [4]: 51.2%; CC50 at 24 h [5]: 34.4 µM; Papp at 18 h, 25 ug/ml [6]: 10.1 ×10⁻⁶ cm/s; viability at 24 h [10]: 51.9%; Time [14]: 14.4 s; IC50 [7]: 0.011 µM; viability at 24 h [8]: 85.5%; Activity [15]: Active; Activity [13]: inactive

Compound | inhibition [1] [%] | IC50 [2] [µM] | inhibition [3] [%] | further results
CCCN(CCCc1ccccc1)Cc1ccc2ccccc2c1 | 21.4 | 1.45 | 80.3 | CC50 at 24 h [5]: 29 µM; Papp at 18 h, 25 ug/ml [6]: 10.3 ×10⁻⁶ cm/s; CC50 at 24 h [12]: 54.6 µM; IC50 [7]: 0.03 µM; viability at 24 h [8]: 62.6%; CC50 at 24 h [9]: 77.8 µM
COc1ccccc1NC(=O)CN(Cc1ccccc1)Cc1ccco1 | 14.7 | 26.4 | 44.2 | 
O=C(CN(Cc1ccccc1)Cc1ccco1)Nc1cccc(F)c1 | 17.3 | 31.7 | 47 | 
O=C(CN(Cc1ccco1)Cc1cccc2ccccc12)Nc1ccccc1 | 19.6 | 21.7 | 47.1 | 
Cc1cccc(NC(=O)CN(Cc2ccccc2)Cc2ccco2)c1C | 19.7 | 2.67 | 61.9 | CC50 at 24 h [11]: 35 µM; CC50 at 24 h [5]: 16.6 µM; Papp at 18 h, 25 ug/ml [6]: 9.47 ×10⁻⁶ cm/s; CC50 at 24 h [12]: 46.8 µM; CC50 at 24 h [9]: 32.1 µM
Cc1ccccc1NC(=O)CN(Cc1ccc2ccccc2c1)CC(C)(C)C | 19.6 | 4.1 | 64.6 | 
CCCCN(CC(=O)Nc1ccccc1C)Cc1ccc2ccccc2c1 | 21.9 | 1.48 | 77.9 | CC50 at 24 h [11]: 70.2 µM; viability at 24 h [4]: 83.1%; CC50 at 24 h [5]: 19 µM; Papp at 18 h, 25 ug/ml [6]: 13.9 ×10⁻⁶ cm/s; viability at 24 h [10]: 49.1%; IC50 [7]: 0.18 µM
Cc1ccccc1NC(=O)CN(Cc1ccc2ccccc2c1)Cc1ccco1 | 15.9 | 1.22 | 70.6 | viability at 24 h [4]: 67.1%; CC50 at 24 h [5]: 10.9 µM; Papp at 18 h, 25 ug/ml [6]: 5.67 ×10⁻⁶ cm/s; viability at 24 h [10]: 67.3%; viability at 24 h [8]: 69.4%
Cc1ccc(NC(=O)CN(Cc2ccccc2)Cc2ccco2)cc1 | 12.8 | 149 | 37.5 | 
O=C(CN(Cc1ccccc1)Cc1ccco1)Nc1cccc(F)c1F | 18 | 13.3 | 50.1 | 
C[C@]12CC[C@@H]3c4ccc(O)cc4CC[C@H]3[C@@H]1CC[C@@H]2O [ESTRADIOL] |  |  |  | Papp at 18 h, 25 ug/ml [6]: 14.6 ×10⁻⁶ cm/s
COc1cc2c(cc1OC)C(=O)C(CC1CCN(Cc3ccccc3)CC1)C2 (centres undefined) |  |  |  | Activity [16]: Active
COCCN(CC1CCCN(Cc2ccccc2)C1)S(=O)(=O)c1ccc2ccccc2c1 (centres undefined) |  |  |  | IC50 [17]: > 10 µM
O=C(CN(Cc1ccccc1)Cc1ccco1)Nc1ccccc1Cl | 17.5 | 9.96 | 50.5 | 
Cc1ccccc1NC(=O)CN(Cc1ccco1)Cc1c[nH]c2ccccc12 | 14.2 | 4.39 | 64.7 | 
O=C(CN(Cc1ccccc1)Cc1ccco1)Nc1ccc(C(F)(F)F)cc1 | 13.4 | 6.8 | 50.9 | 
N#Cc1ccccc1NC(=O)CN(Cc1ccccc1)Cc1ccco1 | 10.3 | 118 | 36.6 | 
O=C(CN(Cc1ccccc1)Cc1ccco1)Nc1cccc2ccccc12 | 13.6 | 3.53 | 63 | 
Cc1ccccc1NC(=O)CN(Cc1ccc2ccccc2c1)C1CCCCC1 | 25.3 | 4.26 | 57.5 | 
COc1cccc(NC(=O)CN(Cc2ccccc2)Cc2ccco2)c1 | 9.2 | 24.8 | 50.1 | 
O=C(CN(Cc1ccccc1)Cc1ccco1)Nc1ccc2ccccc2c1 | 13.9 | 9.77 | 50.4 | 
Cc1cccc(NC(=O)CN(Cc2ccco2)Cc2c[nH]c3ccccc23)c1C | 18.2 | 10.9 | 52.3 | 
O=C(CN(Cc1ccccc1)Cc1ccco1)Nc1ccc2c(c1)OCO2 | 15.2 | 8.26 | 57.3 | 
